Measurements taken from patent US20220257552A1, “METHODS OF PRESCREENING AND TREATING BREAST CANCERS WITH SELECTIVE ANDROGEN RECEPTOR MODULATORS” (priority 2021, published 2022).

Tested on: MDA-MB-231 triple negative breast cancer cells
Assay: SRB cell viability, MDA-MB-231 cells infected with AR adenovirus
Type: cell-based
Method: The SRB assay was used to determine cell number during cytotoxocity experiments. The following protocol was used: • 1. Cells were detached with 0.25% trypsin. • 2. Experimental cultures were cultured in 96-well microtiter plates (200 μL growth medium per well; 1,000-200,000 cells per well). • 3. Cultures were fixed with 50 μL 50% TCA (4° C.). (see cell fixation protocol for details). • 4. Fixed cells were stained with 50 μL 0.4% (wt/vol) SRB in 1% acetic acid for 10 minutes. • 5. SRB was removed and the cultures were quickly* rinsed 5 times with 1% acetic acid to remove unbound dye.** • 6. Cultures were air-dried overnight until there was no visible moisture. • 7. The cellular protein-bound SRB was dissolved with 200 μL unbuffered Tris base (10 mM, pH 10.5) for 30 minutes on a rocking platform shaker. • 8. Absorbance was read at 540 nm. * quickly performing rinsing process was to prevent desorption of protein-bound SRB ** completely removed residual wash solution by sharply flicking plates over sink.
The following protocol was used for fixing cells: • a. 50 μL of 50% TCA (4° C.) was gently layered on the top of growth medium in each well to make a final TCA concentration of 10%. • b. Cultures were incubated at 4° C. for 1 hour. • c. Cultures were washed 5 times with tap water to remove TCA, growth medium, low-molecular-weight metabolites, and serum protein. • d. Plates were air-dried until there was no visible moisture.
Cells were treated in charcoal stripped FBS (FIGS. 4A, 4C, 4E, 4G, 4I, 4K, 4M and 4O) or full serum (FIGS. 4B, 4D, 4F, 4H, 4J, 4L, 4N and 4P) for 3 days, fixed and stained with […] (SRB) to measure cell viability. Anti-proliferative IC50 values were calculated in breast cancer cells and compared to transactivation values, i.e., EC50 (agonists) and IC50 (antagonists) values, generated in HEK-293 cells.

Structure (SMILES): C[C@](O)(COc1ccc(C#N)cc1)C(=O)Nc1ccc(C#N)c(C(F)(F)F)c1 [Formula IX, (S)—N-(4-Cyano-3-(trifluoromethyl)phenyl)-3-(4-cyanophenoxy)-2-hydroxy-2-methylpropanamide]
- growth inhibitory effects in the presence of bicalutamide (AR-positive cells, 10 μM bicalutamide): weakened growth inhibitory effects
- cell growth (cells with AR, 3 days, SRB): inhibited
